Laboratory results taken from ChEMBL document CHEMBL1137450, “Dual serotonin transporter inhibitor/histamine H3 antagonists: development of rigidified H3 pharmacophores” (Bioorg Med Chem Lett, 2007).
pKi: −log10 of the molar value. Calls of active or inactive are those of the source. No cut-off for these calls is given here.

Legend:
Mus musculus [1] = assay: Effect on 5HTP induced mouse head twitch model at 10 mg/kg after 24 hrs; format: functional
Histamine H3 receptor = Histamine H3 receptor (Homo sapiens, UniProt Q9Y5N1); assay: Antagonistic activity at H3 receptor expressed in […] cells assessed as forskolin stimulated cyclic AMP accumulation by functional assay; format: cell-based, SK-N-MC; settings: read-out: pA2 (converted)
Mus musculus [2] = assay: Effect on 5HTP induced mouse head twitch model at 10 mg/kg after 1 hr; format: functional, organism-based; design: dose 10 mg/kg
[3] = biological target: Sodium-dependent serotonin transporter (Homo sapiens, UniProt P31645); assay: Binding affinity at human SERT
[4] = biological target: Sodium-dependent serotonin transporter (Rattus norvegicus, UniProt P31652); assay: Binding affinity at rat SERT
Chain of Sodium-dependent serotonin transporter (Rattus norvegicus, UniProt P31652) (P31652 whole entry): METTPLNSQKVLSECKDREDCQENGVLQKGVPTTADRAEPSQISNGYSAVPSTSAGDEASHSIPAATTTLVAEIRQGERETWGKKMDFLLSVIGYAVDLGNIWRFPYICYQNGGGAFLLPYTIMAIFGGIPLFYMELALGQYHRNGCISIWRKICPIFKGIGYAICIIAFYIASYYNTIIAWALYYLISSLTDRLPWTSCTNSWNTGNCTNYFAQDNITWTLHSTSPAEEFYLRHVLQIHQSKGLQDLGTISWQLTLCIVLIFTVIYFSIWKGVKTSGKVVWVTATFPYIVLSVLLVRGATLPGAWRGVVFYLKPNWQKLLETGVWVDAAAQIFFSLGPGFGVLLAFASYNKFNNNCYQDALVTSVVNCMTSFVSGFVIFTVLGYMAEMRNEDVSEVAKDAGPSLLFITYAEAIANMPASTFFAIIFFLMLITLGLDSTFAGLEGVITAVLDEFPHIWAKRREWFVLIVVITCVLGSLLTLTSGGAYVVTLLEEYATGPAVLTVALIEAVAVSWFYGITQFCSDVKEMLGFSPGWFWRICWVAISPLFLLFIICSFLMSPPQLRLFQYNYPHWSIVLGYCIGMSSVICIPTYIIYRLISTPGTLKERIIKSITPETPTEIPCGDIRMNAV

Chain of Sodium-dependent serotonin transporter (Homo sapiens, UniProt P31645) (P31645 whole entry): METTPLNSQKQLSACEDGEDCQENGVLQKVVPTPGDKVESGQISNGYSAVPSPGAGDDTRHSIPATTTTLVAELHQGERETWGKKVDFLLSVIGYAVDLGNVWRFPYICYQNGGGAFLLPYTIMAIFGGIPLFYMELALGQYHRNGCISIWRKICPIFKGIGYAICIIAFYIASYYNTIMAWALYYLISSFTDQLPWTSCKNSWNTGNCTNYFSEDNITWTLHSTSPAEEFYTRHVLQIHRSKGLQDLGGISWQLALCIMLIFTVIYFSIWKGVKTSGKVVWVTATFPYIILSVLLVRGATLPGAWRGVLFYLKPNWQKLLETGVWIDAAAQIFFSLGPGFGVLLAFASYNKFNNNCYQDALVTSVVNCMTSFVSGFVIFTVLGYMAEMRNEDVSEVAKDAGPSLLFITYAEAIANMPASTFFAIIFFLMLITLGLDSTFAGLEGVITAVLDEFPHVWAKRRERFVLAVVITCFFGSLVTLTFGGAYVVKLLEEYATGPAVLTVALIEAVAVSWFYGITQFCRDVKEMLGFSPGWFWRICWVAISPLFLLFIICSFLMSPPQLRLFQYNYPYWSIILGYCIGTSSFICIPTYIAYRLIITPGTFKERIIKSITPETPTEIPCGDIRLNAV
Chain of Histamine H3 receptor (Q9Y5N1 whole entry): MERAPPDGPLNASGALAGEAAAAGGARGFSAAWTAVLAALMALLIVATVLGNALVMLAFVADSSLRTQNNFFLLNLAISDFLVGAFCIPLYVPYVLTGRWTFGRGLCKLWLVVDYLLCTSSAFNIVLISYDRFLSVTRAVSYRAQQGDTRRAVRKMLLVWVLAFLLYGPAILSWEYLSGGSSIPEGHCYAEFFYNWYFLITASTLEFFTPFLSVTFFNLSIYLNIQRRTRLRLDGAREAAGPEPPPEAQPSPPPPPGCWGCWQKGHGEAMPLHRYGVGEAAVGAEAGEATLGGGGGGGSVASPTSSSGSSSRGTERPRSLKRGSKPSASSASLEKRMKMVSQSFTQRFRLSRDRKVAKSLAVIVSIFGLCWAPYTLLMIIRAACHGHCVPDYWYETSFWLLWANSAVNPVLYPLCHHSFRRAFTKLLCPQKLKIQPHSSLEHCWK

| Structure (SMILES) | Kb (Histamine H3 receptor) [nM] | pKi [3] | pKi [4] | Activity (Mus musculus [1]) [%] | Activity (Mus musculus [2]) |
| --- | --- | --- | --- | --- | --- |
| CSc1ccc(C2CN(C)Cc3cc(Oc4ccc(CN5CCCCC5)cn4)ccc32)cc1 (centres undefined) | 20 |  |  | 272 | inactive |
| CSc1ccc(C2CN(C)Cc3cc(Oc4cncc(CN5CCCCC5)c4)ccc32)cc1 (centres undefined) |  | 8.08 | 8.01 |  |  |
| CN(C)CCC(Oc1ccccc1)c1ccc(OCCCN2CCCCC2)cc1 (centres undefined) |  | 7.59 |  |  |  |

More lines, main results first:

| Kb (Histamine H3 receptor) [nM] | pKi [3] | pKi [4] | Structure (SMILES) | Activity (Mus musculus [1]) [%] | Activity (Mus musculus [2]) |
| --- | --- | --- | --- | --- | --- |
|  | 7.81 | 7.85 | CSc1ccc(C2CN(C)Cc3cc(Oc4nc(CN5CCOCC5)cs4)ccc32)cc1 (centres undefined) |  |  |
| 20 |  |  | CSc1ccc(C2CN(C)Cc3cc(Oc4nc(CN5CCCCC5)cs4)ccc32)cc1 (centres undefined) |  |  |
